Measurements reported in patent US6781000B1, “Alpha-ketoamide inhibitors of 20S proteasome” (CV Theurapeutics, Inc., priority 1998, dated 2004).

target: T1, chymotrypsin-like activity of 20S proteasome (Bos taurus, UniProt Q2TBX6+Q32KL2); assay: 20S proteasome chymotryptic activity inhibition assay (Suc-Leu-Leu-Val-Tyr-AMC cleavage); assay type: biochemical; details: 2 μg 20S proteasome from bovine brain, 50 μM fluorogenic substrate, 15 minutes at 37° C., pH7.5
T1 construct: was purified to homogeneity from bovine brain according to published methods; from tissue; host or cells: bovine brain
Procedure: Compounds of this invention prepared according to the method of Example 1 were tested as follows. The 20S catalytic subunit of the proteasome (also known as the multicatalytic proteinase complex) was purified to homogeneity from bovine brain according to published methods (Wilk S. and Orlowski,M 1983, 40 842 J.Neurochem). The chymotryptic activity of the complex is measured by the increase in fluorescence following cleavage of the substrate peptide succinyl-leucine-leucine-valine-tyrosine-7-amino-4methyl coumarin. The standard in vitro assay consists of 2 μg 20S proteasome, 0.1-100 μg/ml proteasome inhibitor in 200 μl 50 mM HEPES, containing 0.1% sodium dodecyl sulphate, pH7.5. The proteolytic reaction is initiated by the addition of 50 μM flourogenic peptide substrate and allowed to progress for 15 minutes at 37° C. The reaction is terminated by the addition of 100 μL of 100 mM acetate buffer, pH4.0. The rate of proteolysis is directly proportional to the amount of liberated aminomethylcoumarin which is measured by fluorescent spectroscopy (EX 370 nm, EM 430 nm).

| SMILES | IC50 [µM] | IC50 for the inhibition of the chymotrypsin-like activity of 20S proteasome [µg/mL] |
| --- | --- | --- |
| CC(C)C[C@@H](NC(=O)C(=O)Cc1c[nH]c2ccccc12)C(=O)N[C@H](CC(C)C)C(=O)NCc1ccccc1 [Compound 3] | > 19.3 |  |
| CC(C)CC(NC(=O)C(=O)Cc1c[nH]c2ccccc12)C(=O)NC(CC(C)C)C(=O)NCC(=O)O (stereo not shown) [Compound 5] | > 20.6 |  |
| CC(C)CC(NC(=O)C(=O)Cc1ccccc1)C(=O)NC(CC(C)C)C(=O)NCC(=O)O (stereo not shown) [Compound 6] |  | >10 |
| CC(C)CC(NC(=O)C(=O)Cc1ccccc1)C(=O)NC(CC(C)C)C(=O)NCC(=O)NCc1ccccc1 (stereo not shown) [Compound 7] |  | >10 |
| CC(C)CC(NC(=O)C(=O)c1c[nH]c2ccccc12)C(=O)NC(CC(C)C)C(=O)NCC(=O)NCc1ccccc1 (stereo not shown) [Compound 8] |  | >10 |
| CC(C)CC(NC(=O)C(=O)Cc1c[nH]c2ccccc12)C(=O)NC(CC(C)C)C(=O)NCC(=O)NCc1ccccc1 (stereo not shown) [Compound 9] |  | >10 |
| CC(C)CC(NC(=O)C(CC(C)C)NC(=O)C(=O)c1c[nH]c2ccccc12)C(=O)O (stereo not shown) [Compound 10] |  | >10 |
| CC(C)CC(NC(=O)C(CC(C)C)NC(=O)C(=O)c1ccccc1)C(=O)O (stereo not shown) [Compound 11] |  | >10 |
| CC(C)CC(NC(=O)C(=O)c1ccccc1)C(=O)NC(CC(C)C)C(=O)NCC(=O)O (stereo not shown) [Compound 12] |  | >10 |
| CC(C)CC(NC(=O)C(=O)Cc1ccccc1)C(=O)NC(CC(C)C)C(=O)NC(Cc1ccccc1)C(=O)O (stereo not shown) [Compound 13] |  | >10 |
| CC(C)CC(NC(=O)C(=O)c1c[nH]c2ccccc12)C(=O)NC(CC(C)C)C(=O)NC(Cc1ccccc1)C(=O)O (stereo not shown) [Compound 14] |  | >10 |
| CC(C)C[C@H](NC(=O)C(=O)Cc1c[nH]c2ccccc12)C(=O)N[C@H](CC(C)C)C(=O)N[C@H](C(=O)O)C(C)C [Compound 17] | > 18.9 |  |
| CC(C)C[C@H](NC(=O)[C@@H](CC(C)C)NC(=O)[C@H](CC(C)C)NC(=O)C(=O)Cc1c[nH]c2ccccc12)C(=O)O [Compound 18] | > 18.4 |  |
| CCC(C)C(NC(=O)C(CC(C)C)NC(=O)C(CC(C)C)NC(=O)C(=O)Cc1c[nH]c2ccccc12)C(=O)O (stereo not shown) [Compound 19] |  | >10 |
| CC(C)CC(NC(=O)C(=O)Cc1c[nH]c2ccccc12)C(=O)NC(CC(C)C)C(=O)NC(C)C(=O)O (stereo not shown) [Compound 20] |  | >10 |
| CC(C)CC(NC(=O)C(=O)Cc1c[nH]c2ccccc12)C(=O)NC(CC(C)C)C(=O)NC(Cc1ccc(O)cc1)C(=O)O (stereo not shown) [Compound 21] |  | >10 |
| CC(C)CC(NC(=O)C(CC(C)C)NC(=O)C(CC(C)C)NC(=O)C(=O)Cc1c[nH]c2ccccc12)C(=O)O (stereo not shown) [Compound 22] |  | >10 |
| CC(C)C[C@H](NC(=O)[C@@H](CC(C)C)NC(=O)[C@@H](CC(C)C)NC(=O)C(=O)Cc1c[nH]c2ccccc12)C(=O)O [Compound 23] | > 18.4 |  |
| CCC(C)C(NC(=O)C(CC(C)C)NC(=O)C(CC(C)C)NC(=O)C(=O)Cc1c[nH]c2ccccc12)C(=O)O (stereo not shown) [Compound 24] |  | >10 |
| CC(C)CC(NC(=O)C(=O)Cc1c[nH]c2ccccc12)C(=O)NC(CC(C)C)C(=O)NC(C)C(=O)O (stereo not shown) [Compound 25] |  | >10 |
| CC(C)CC(NC(=O)C(=O)Cc1c[nH]c2ccccc12)C(=O)NC(CC(C)C)C(=O)NC(Cc1ccc(O)cc1)C(=O)O (stereo not shown) [Compound 26] |  | >10 |
| CC(C)CC(NC(=O)C(=O)Cc1c[nH]c2ccccc12)C(=O)NC(CC(C)C)C(=O)NC(C(=O)O)C(C)C (stereo not shown) [Compound 27] |  | >10 |
